Laboratory results as given in the supplement of paper PMC10307832.

How the values were obtained:
Assay in all cases: relative viability (nuclei count vs DMSO), 5 days (fraction); higher = more cells survive
[1] = compound: COc1cc(-c2nn([C@H]3CC[C@H](N4CCN(C(C)=O)CC4)CC3)c3ncnc(N)c23)ccc1NC(=O)c1cc2ccccc2n1C + CC(=O)Nc1cccc(-n2c(=O)n(C3CC3)c(=O)c3c(Nc4ccc(I)cc4F)n(C)c(=O)c(C)c32)c1 [Trametinib] (partner 0.02 µM)
Outline: (§1)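 One day after seeding in 1536-well plates, lung cancer cell lines were dosed by pin tool. Dosing was either single-drug or a fixed anchor-drug dose plus five library-drug doses (not always all listed) in √10 steps. After 5 days, nuclei were stained in one fix-and-stain step and counted on 4× images, and relative viability is the nuclei count of treated wells over that of vehicle wells, given as the median of duplicate plates.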

[2] = compound: CO[C@@H]1[C@H](N(C)C(=O)c2ccccc2)C[C@H]2O[C@]1(C)n1c3ccccc3c3c4c(c5c6ccccc6n2c5c31)C(=O)NC4 [Midostaurin] + COc1cc2c(Oc3ccc(NC(=O)C4(C(=O)Nc5ccc(F)cc5)CC4)cc3F)ccnc2cc1OCCCN1CCOCC1 [Foretinib] (partner 0.25 µM)
Outline: as §1

[3] = compound: CO[C@@H]1[C@H](N(C)C(=O)c2ccccc2)C[C@H]2O[C@]1(C)n1c3ccccc3c3c4c(c5c6ccccc6n2c5c31)C(=O)NC4 [Midostaurin] + CC1(C)CCC(c2ccc(Cl)cc2)=C(CN2CCN(c3ccc(C(=O)NS(=O)(=O)c4ccc(N[C@H](CCN5CCOCC5)CSc5ccccc5)c(S(=O)(=O)C(F)(F)F)c4)cc3)CC2)C1 [Navitoclax] (partner 0.5 µM)
Outline: as §1

[4] = compound: COc1cc(-c2nn([C@H]3CC[C@H](N4CCN(C(C)=O)CC4)CC3)c3ncnc(N)c23)ccc1NC(=O)c1cc2ccccc2n1C
Outline: (§2)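 Five library-drug doses spaced by √10 were pinned onto vehicle-anchored 1536-well plates of lung cancer cell lines that had been kept overnight at 37 °C. Cells went 5 days without medium change, then were fixed, permeabilised and Hoechst-stained together, imaged at 4× and counted by MetaXpress. Viability is the ratio of treated-well to vehicle-well nuclei, taken as a median over plates. Plates required control CV below 25% and at least one doubling.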

[5] = compound: CO[C@@H]1[C@H](N(C)C(=O)c2ccccc2)C[C@H]2O[C@]1(C)n1c3ccccc3c3c4c(c5c6ccccc6n2c5c31)C(=O)NC4 [Midostaurin]
Outline: as §2

| Cell Line | relative viability ([1]; first compound 0.0128 µM) | relative viability ([1]; first compound 0.04048 µM) | relative viability ([1]; first compound 0.128 µM) | relative viability ([1]; first compound 1.28 µM) | relative viability ([2]; first compound 0.01 µM) | relative viability ([2]; first compound 0.03162 µM) | relative viability ([2]; first compound 0.1 µM) | relative viability ([2]; first compound 0.3162 µM) | relative viability ([3]; first compound 0.01 µM) | relative viability ([3]; first compound 0.03162 µM) | relative viability ([3]; first compound 0.1 µM) | relative viability ([3]; first compound 0.3162 µM) | relative viability ([4]; 0.0128 µM) | relative viability ([4]; 0.04048 µM) | relative viability ([4]; 0.128 µM) | relative viability ([4]; 1.28 µM) | relative viability ([5]; 0.01 µM) | relative viability ([5]; 0.03162 µM) | relative viability ([5]; 0.1 µM) | relative viability ([5]; 0.3162 µM) |
| --- | --- | --- | --- | --- | --- | --- | --- | --- | --- | --- | --- | --- | --- | --- | --- | --- | --- | --- | --- | --- |
| NCI-H23 | 0.405 | 0.25 | 0.281 | 0.226 | 0.685 | 1.23 | 0.648 | 0.531 | 0.875 | 0.95 | 0.396 | 0.788 | 0.951 | 0.726 | 0.901 | 0.946 | 1.05 | 0.962 | 0.791 | 0.562 |
| HCC-366 | 0.309 | 0.281 | 0.305 | 0.179 | 0.932 | 0.957 | 0.81 | 0.75 | 1.07 | 1.16 | 1 | 1.06 | 0.995 | 1.04 | 0.977 | 0.916 | 0.913 | 1.03 | 1.02 | 0.955 |
| EMC-BAC-2 | 0.901 | 0.537 | 0.834 | 1.02 | 0.961 | 0.828 | 0.822 | 0.708 | 1.19 | 1.09 | 0.981 | 1.08 | 1.04 | 1.17 | 0.941 | 0.957 | 0.928 | 0.903 | 0.858 | 0.954 |
| NCI-H2405 | 0.645 | 0.307 | 0.532 | 0.347 | 1.05 | 0.985 | 1.01 | 0.96 | 0.921 | 1.04 | – | 0.655 | 1.06 | 0.667 | 0.964 | 0.526 | 1.01 | 1.05 | 0.883 | 1.07 |
| NCI-H1944 | 0.455 | 0.274 | 0.393 | 0.295 | 0.893 | 0.899 | 0.711 | 0.853 | 1.03 | 1.18 | 1.11 | 1.15 | 1.09 | 0.983 | 0.921 | 0.769 | 0.963 | 0.987 | 0.931 | 1.15 |
| EPLC-272H | 0.331 | 0.205 | 0.278 | 0.24 | 0.822 | – | 0.653 | 0.606 | 1.11 | 0.96 | 0.856 | 1.27 | 0.906 | 0.873 | 0.963 | 0.865 | 1.04 | 0.944 | 0.93 | 0.969 |
| NCI-H1915 | 0.333 | 0.141 | 0.301 | 0.241 | 1.1 | 0.993 | 1.04 | 1.09 | 0.8 | 0.827 | 0.794 | 0.799 | 1.03 | 0.783 | 0.957 | 0.831 | 0.951 | 0.946 | 0.951 | 1.03 |
| NCI-H596 | 0.915 | 0.8 | 0.88 | 0.554 | 0.816 | 0.969 | 0.723 | 0.896 | 1.09 | 1.02 | 0.978 | 1.07 | 1.03 | 0.95 | 0.833 | 0.836 | 0.946 | 1.01 | 1.15 | 1.17 |
| NCI-H322M | 0.453 | 0.489 | 0.491 | 0.463 | 1.04 | 0.923 | 1.07 | 1.14 | 1.18 | 1.19 | 1.31 | 1.26 | 0.995 | 0.897 | 0.909 | 0.69 | 1 | 0.852 | 1.06 | 1.34 |
| NCI-H2228 | 0.448 | 0.146 | 0.539 | 0.377 | 0.922 | 0.85 | 1.08 | 0.905 | 0.665 | 0.824 | 1.01 | 1.02 | 1.22 | 1 | 1.12 | 0.744 | 1.02 | 0.969 | 1.22 | 1.18 |
| NCI-H647 | 0.543 | 0.265 | 0.333 | 0.169 | 1.14 | 1.2 | 1.2 | 1.14 | 1.16 | 0.997 | 0.953 | 0.738 | 1.09 | 0.961 | 0.88 | 0.623 | 0.919 | 0.88 | 0.962 | 0.884 |
| SK-MES-1 | 0.563 | 0.4 | 0.539 | 0.279 | 0.927 | 0.925 | 0.963 | 0.781 | 1.17 | 1.13 | 1.18 | 1.15 | 1.02 | 1.07 | 1.01 | 0.912 | 0.998 | 0.92 | 0.967 | 0.89 |
| NCI-H2170 | 0.992 | 0.797 | 0.919 | 0.876 | 1.05 | 0.951 | 0.477 | 0.735 | 0.609 | 0.673 | 0.549 | 0.569 | 1.07 | 0.996 | 0.991 | 0.821 | 0.973 | 0.941 | 1.01 | 1 |
| NCI-H2085 | 0.611 | 0.643 | 0.405 | 0.334 | 1.02 | 0.845 | 0.863 | 0.555 | 1.16 | 1.06 | 1.02 | 0.757 | 1.01 | 1.01 | 0.99 | 0.992 | 1.06 | 0.889 | 1.02 | 0.919 |
